Test results from patent publication US9034859B2, “Sulfated oxysterol and oxysterol sulfation by hydroxysterol sulfotransferase promote lipid homeostasis and liver proliferation” (Virginia Commonwealth University, priority 2011, dated 2015).
“And” between values parts separate entries of the source, which are not always exact repeats. Identical values can stand only once.

Columns and labels:
[1] = test system: genes related to cell cycle progression; assay: RTqPCR of cell cycle-related genes in mouse liver after 25HC3S (Example 3); assay type: in vivo, C57BL/6 mice; details: doses lower than 5 mg/kg, 48 h, dose-dependent
Description: PCR assays were performed in 96-well optical reaction plates using the ABI 7500 Fast Real-Time PCR System (Applied Biosystems, Foster City, Calif.). PCR assays were conducted in triplicate wells for each sample. Baseline values of amplification plots were set automatically and threshold values were kept constant to obtain normalized cycle times and linear regression data. The following reaction mixture per well was used: 2×SYBR Green PCR Master Mix (10 ul), primer at the final concentration of 10 uM (1 ul), RNAse-free water (4 ul), cDNA (5 ul, 10 ng). For all experiments the following PCR conditions were used: denaturation at 95° C. for 10 minutes, followed by 40 cycles at 95° C. for 15 seconds, then at 60° C. for 60 seconds. Quantitative normalization of cDNA in each sample was performed using 18S gene as an internal control. Relative quantification was performed using the ΔΔCT method. Suitable primers were used for RtqPCR.

[2] = test system: apoptotic and cell cycle related genes; assay: Mouse Cell cycle RT2 Profiler PCR Array of liver tissues; assay type: in vivo, C57BL/6 mice; details: 5 mg/kg, versus vehicle
Description: The real-time PCR array was performed using the Mouse Cell cycle RT2 Profiler™ PCR Array consisting of 84 key genes involved in apoptosis and proliferation as the manufacturer's instruction (SABiosciences, Frederick, Md.). Total mRNA was reverse-transcribed to cDNA as described above. Three of biologically-distinct specimens were pooled to reduce variance. The cDNA was then amplified precisely like real-time PCR in the primers-preloaded PCR plates on the ABI 7500 Fast Real-Time PCR System. ΔΔCT values between different stimulated samples were analyzed as the manufacturer's instruction, which output p-values for fold-regulation change.

[3] = Quantification of hepatic lipids and liver morphology, long-term treatment; assay type: in vivo, C57BL/6J female mice; details: HFD mice
Description: Animal studies were approved by Institutional Animal Care and Use Committee of McGuire Veterans Affairs Medical Center and were conducted in accordance with the Declaration of Helsinki, the Guide for the Care and Use of Laboratory Animals, and all applicable regulations. To examine the effect of 25HC3S on diet-induced lipid accumulation in sera and liver, 8-week-old female C57BL/6J mice (Charles River, Wilmington, Mass.) were randomly assigned to three groups: the first control group was fed a chow diet; the high fat diet (HFD) group was fed a HFD (Harlan Teklad, Madison, Wis.) containing 42% kcal from fat, 43% kcal from carbohydrate, 15% kcal from protein and 0.2% cholesterol; and the high cholesterol diet (HCD) group was fed a 2% cholesterol diet with 18% kcal from fat, 58% kcal from carbohydrate and 24% kcal from protein for 10 weeks, respectively. All mice were housed under identical conditions in an aseptic facility and given free access to water and food. At the end of each period, the mice were intraperitoneally injected with vehicle solution (ethanol/PBS; Vehicle), 25HC (25 mg/kg), or 25HC3S (25 mg/kg) for 2 times and fasted over night for acute treatment (n=15-17 for each group) or once every three days for 6 weeks (n=16 for each group) and fasted 5 hrs for long-term treatment; and blood samples were collected. Serum triglyceride, total cholesterol, high density lipoprotein-cholesterol, glucose, alkaline phosphatase (ALK), alanine aminotransferase (ALT), and aspartate aminotransferase (AST) were measured using standard enzymatic techniques in the clinical laboratory at McGuire Veterans Affairs Medical Center. Lipoprotein profiles in sera were analyzed by HPLC as following described.
For each mouse, three specimens from different regions of the liver were collected and fixed in 4% paraformaldehyde in 0.1 M phosphate buffer at room temperature overnight. The regions of the specimens were standardized for all mice. The paraffin-embedded tissue sections (4 μm) were stained with hematoxylin and eosin.
Liver tissues were homogenized, and lipids were extracted with a mixture of chloroform and methanol (2:1), and filtered. The extracts, 0.2 ml, were evaporated to dryness and dissolved in 100 μl of isopropanol containing 10% of triton X-100 for cholesterol assay (Wako Chemicals USA, Richmond, Va.), the NEFA solution (0.5 g of EDTA-Na2, 2 g of Triton X-100, 0.76 ml of 1N NaOH, and 0.5 g of sodium azide/1, pH 6.5) for free fatty acid assay (Wako Chemicals USA, Richmond, Va.), or isopropanol only for triglyceride assay (Fisher Scientific, Pittsburgh, Pa.). All of the assays were performed according to the manufacturer's instructions, respectively. Each lipid concentration was normalized to liver weight.

[4] = HPLC analysis of serum lipoprotein profiles; assay type: in vivo, C57BL/6J female mice; details: HFD mice, acute treatment
Description: Animal studies were approved by Institutional Animal Care and Use Committee of McGuire Veterans Affairs Medical Center and were conducted in accordance with the Declaration of Helsinki, the Guide for the Care and Use of Laboratory Animals, and all applicable regulations. […] All mice were housed under identical conditions in an aseptic facility and given free access to water and food. At the end of each period, the mice were intraperitoneally injected with vehicle solution (ethanol/PBS; […] Serum triglyceride, total cholesterol, high density lipoprotein-cholesterol, glucose, alkaline phosphatase (ALK), alanine aminotransferase (ALT), and aspartate aminotransferase (AST) were measured using standard enzymatic techniques in the clinical laboratory at McGuire Veterans Affairs Medical Center. Lipoprotein profiles in sera were analyzed by HPLC as following described. […] Fractions were collected for 1.2 min each. The cholesterol assay was performed using 180 μl of each fraction plus 20 μl of a 10× solution of Wako Total Cholesterol E Reagent (Wako Chemicals USA, Richmond, Va.) in a 96 well plate, incubated at 37° C. and read at 595 nm.

## CC(CCCC(C)(C)O)C1CCC2C3CC=C4CC(OS(=O)(=O)O)CCC4(C)C3CCC12C (stereo not shown) [25HC3S, 25-hydroxycholesterol-3-sulfate]
[1]
  hepatic mRNA of cMyc, cyclin A, FoxM1b, CDC25b: significant up-regulation
[2]; 48 h
  decrease of Apaf1 expression: 3 fold
  decrease of Chek2 expression: 4.5 fold
[2]; 2 days, pooled mRNA
  Fold change Apaf1(NM_009684): −3.21 fold
  Fold change Atr(NM_019864): −2.15 fold
  Fold change Bag1(NM_009736): 2.0488 fold
  Fold change Bnip3(NM_009760): 2.0112 fold
  Fold change Brca1(NM_009764): −1.87 fold
  Fold change Ccnb2(NM_007630) Cyclin B2: 1.90 fold
  Fold change Ccne2(NM_009830) Cyclin E2: 2.52 fold
  Fold change Cdc25a(NM_007658): 1.53 fold
  Fold change Cdc25c(NM_009860): 1.56 fold
  Fold change Cdkn1a(NM_007669): 3.0411 fold
  Fold change Chek2(NM_016681): −4.65 fold
  Fold change E2f3(NM_010093): 2.0193 fold
  Fold change Ep300(NM_177821): 1.8114 fold
  Fold change Esr1(NM_007956): 2.2535 fold
  Fold change Gadd45a(NM_007836): −1.59 fold
  Fold change Hif1a(NM_031168): 1.7576 fold
  Fold change Mdm2(NM_010786): 1.6222 fold
  Fold change Myod1(NM_010866): 1.56 fold
  Fold change Nf1(NM_010897): 2.10 fold
  Fold change Pcna(NM_011045): 3.7 fold and 3.77 fold
  Fold change Prkca(NM_011101): 2.29 fold
  Fold change Tnf(NM_013693): −2.76 fold
  Fold change Tnfrsf10b(NM_020275): −2.28 fold
  Fold change Trp73(NM_011642): 2.5194 fold
  Fold change Wt1(NM_144783): 3.9 fold and 3.90 fold
  Fold change Xrcc5(NM_009533): −1.90 fold
[3]
  hepatic cholesterol ester concentration: not affected
  lipid inclusions in liver (H&E morphology): significantly decreased
[3]; normalized by liver weight
  reduction of hepatic free cholesterol: 28%
  reduction of hepatic free fatty acid: 23%
  reduction of hepatic total cholesterol: 15%
  reduction of hepatic triglyceride: 30%
[4]
  LDL, VLDL, and HDL protein levels: did not change
  cholesterol contents in HDL fractions: slightly decreased
  triglyceride contents in VLDL fractions: markedly decreased

## C[C@H](CCCC(C)(C)O)[C@H]1CC[C@H]2[C@@H]3CC=C4C[C@@H](O)CC[C@]4(C)[C@H]3CC[C@]12C [25HC, 25-hydroxycholesterol]
[4]
  cholesterol contents in LDL and HDL fractions: significantly increased
  triglyceride contents in LDL fractions: significantly increased
